Assay results taken from patent US20240272165A1, “A METHOD TO IDENTIFY EXCEPTIONAL ANTI-TUMOR BENEFIT FROM BRAF TARGETED THERAPIES” (The Brigham and Women's Hospital, priority 2021, published 2024).

Experiments:
Malme3M = assay: growth rate effect of drugs in sgGAPDHS genome-edited cells versus control; assay type: cell-based; conditions: spCas9/sgGAPDHS genome-editing
Source text: FIGS. 8A-8C. GAPDHS is required for BRAF inhibitor sensitivity in vitro. Lentiviral spCas9/sgGAPDHS genome-editing in Malme3M 8A) reduces protein levels (WB) but not signaling consequences following vemurafenib or PD-0325901. 8B) reduction in the inherent NAD+/NADH ratio is seen, but not treatment affected changes; however the basal NADP+/NADPH ratio is higher and treatment causes divergent changes. 8C) Growth rates are less affected by vemurafenib, PD-0325901, cobimetinib, and PLX7904 due to sgGAPDHS targeting. Significance using 2-sided, 2-sample t-test; *p<0.05; **p<0.01.
We generated short-guide RNA (sgRNA) for CRISPR/Cas9-mediated genome-editing within the pLentiCRISPRv2 system to assess whether GAPDHS regulates sensitivity to BRAF-targeted drugs through the metabolic state. […] (FIG. 8C). […] We will expand these analyses to also include SKMEL28 and UACC62, and assess dabrafenib and encorafenib. We will also measure basal and changes following BRAF/MEK-inhibitor on the inherent metabolic state, measured as NAD(P)+/NAD(P)H ratios and GAPDH/S activity.

SKMEL2(NRAS-Q61R) = assay: drug-mediated growth inhibition as percentage of baseline doubling rate; assay type: cell-based; conditions: NRAS-mutant SKMEL2
Source text: FIGS. 5A-5B. Response to BRAF/MEK inhibition in melanoma cells was associated with the inherent metabolic state. 5A) Effects on cell doubling rates caused by vemurafenib and PD0325901 treatment in melanoma and carcinoma cell lines. […] 5B) Pearson metric of PD-0325901 growth rate effects used on gene-level transcription data (HuExon 1.0ST) for Gene Set Enrichment Analysis (GSEA) identified specific pathways associated with sensitivity, particularly oxidative phosphorylation, and resistance to BRAF/MEK inhibition.
Because melanoma cells undergo metabolic shift in response to BRAF- and MEK-targeted therapy, we wanted to characterize the drug sensitivities across a melanoma cell line cohort (FIG. 4A). To ensure that rapidly growing cells versus slow were compared in a normalized manner, we assessed the degree of drug-mediated growth inhibition as percentage of the baseline doubling rate for each cell line (FIG. 5A). This approach was based on classical chemotherapy effect measures [26;27 recently used by others].

SMILES: O=C(c1ccc(F)c(F)c1Nc1ccc(I)cc1F)N1CC(O)([C@@H]2CCCCN2)C1 [cobimetinib]
- sensitivity (measured as growth rate effect) of sgGAPDHS cells versus control (Malme3M): reduced sensitivity

SMILES: Cc1nc(NC(=O)N2CCC[C@H]2C(N)=O)sc1-c1ccnc(C(C)(C)C(F)(F)F)c1 [BYL719]
- sensitivity (measured as growth rate effect) of sgGAPDHS cells versus control (Malme3M): did not, however, observe reduced sensitivity

SMILES: CCCS(=O)(=O)Nc1ccc(F)c(C(=O)c2c[nH]c3ncc(-c4ccc(Cl)cc4)cc23)c1F [vemurafenib]
- doubling rate under BRAF inhibitor, % of normal doubling rate (SKMEL2(NRAS-Q61R)): 100%

SMILES: CCN(C)S(=O)(=O)Nc1ccc(F)c(C(=O)c2c[nH]c3ncc(-c4cnc(C5CC5)nc4)cc23)c1F [PLX7904]
- sensitivity (measured as growth rate effect) of sgGAPDHS cells versus control (Malme3M): reduced sensitivity

SMILES: O=C(NOC[C@H](O)CO)c1ccc(F)c(F)c1Nc1ccc(I)cc1F [PD-0325901]
- sensitivity (measured as growth rate effect) of sgGAPDHS cells versus control (Malme3M): reduced sensitivity
